Entries after “also recorded” stand apart in the source; their conditions may differ. Like-named read-outs stand apart in the source and are kept apart here.
Legend:
[1] = test system: T-47D human mammary cancer cells; assay: MTT test, proliferation of T-47D; type: cell-based; conditions: for activity at 100 µM / activity at 1 µM / activity at 0.01 µM: Homo sapiens, T47D, T-47D, 72 h, control = 100%, read-out: level of proliferation; for activity at 100 µM: 10^-4 M; for activity at 1 µM: 10^-6 M; for activity at 0.01 µM: 10^-8 M; for effect on cellular increase, T-47D (in words): MTT test
Method in brief: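 After 24 h seeding, cells in MEM with 5% decomplemented FCS at 37° C were exposed to compound at 10^-8 M, 10^-6 M and 10^-4 M. Viability was assessed by MTT reduction to formazan, dissolved in DMSO. Mean optical density is expressed as % of untreated control (100%), in 6 duplicates.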

Gal4-RARα = assay: Transactivation, chimerical receptor Gal4-RARα (transitory transfection of HeLa); type: cell-based; conditions: 100% = TTNPB 10^-8 M
RARα-ERcassette = assay: Transactivation, chimerical receptor RARα-ERcassette (HeLa); type: cell-based; conditions: TTNPB 10^-8 M = 100
Method in brief: (§1)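 Chimeric RARα, β or γ retaining A, B, D, E and F regions but carrying the oestrogen receptor C domain drives luciferase through an ERE in transiently transfected HeLa cells. Treatment lasts 16 h.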

[2] = test system: AP-1, MTLN lineage (MCF-7); assay: Anti-AP-1 effect, MTLN lineage activated by TPA; type: cell-based, human; conditions: for inhibition at 1 µM: 10^-6 M; for anti-AP-1 effect (in words): TPA-activated MTLN cells
Method in brief: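 MCF-7-derived MTLN cells stably carrying a p(TRE)3-tk-Luc reporter, activated with 10^-7 M TPA, run in duplicate. Luciferase inhibition by compounds given as percentage after subtracting basal cell activity, reported as a range from several experiments.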

[3] = test system: ERE-βGlob-Luc, MELN lineage (MCF-7); assay: Anti-oestrogenic effect, MELN lineage activated by estradiol; type: cell-based, human; conditions: for inhibition: MCF7, 10^-6 M, cells activated by 10^-9 M estradiol; for anti-oestrogenic effect (in words): estradiol-activated MELN cells
Method in brief: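 MCF-7-derived MELN cells stably carry luciferase driven by chicken vitellogenin A2 ERE and βGlobin promoter; stimulated with 10^-9 M estradiol, run in duplicate. Basal activity is set with 1 μM 4-OH-tamoxifen and subtracted. Effect expressed as percentage.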

[4] = test system: RAR-ERcassettes (RARα, RARβ, RARγ); assay: Chimerical receptors RAR-ERcassettes, overall profile; type: cell-based
Method in brief: as §1

[5] = test system: A-427 human pulmonary cancer cells; assay: MTT test, proliferation of A-427; conditions: for activity at 0.01 µM / activity at 1 µM / activity at 100 µM: Homo sapiens, A-427, 72 h, read-out: level of proliferation; for effect on cellular increase, A-427 (in words): MTT test
[6] = Homo sapiens, MCF7, cells activated by 10^-7 M TPA, range of several experiments
[7] = Homo sapiens, MCF7, 10^-7 M, cells activated by 10^-7 M TPA, range of several experiments, read-out: anti-AP-1 effect, inhibition
[8] = Homo sapiens, MCF7, read-out: anti-AP-1 effect, inhibition

| SMILES | activity at 100 µM [1] [%] | activity at 1 µM [1] [%] | activity at 0.01 µM [1] [%] | GAL4-RAR RARα transactivation (Gal4-RARα; 10^-6 M) [%] | RAR-ERcassette RARα transactivation (RARα-ERcassette; 10^-6 M) [%] | RAR-ERcassette RARα transactivation (RARα-ERcassette; 10^-7 M) [%] | RAR-ERcassette RARα transactivation (RARα-ERcassette; 10^-8 M) [%] | inhibition at 1 µM [2, 6] [%] | inhibition at 0.1 µM [2, 7] [%] | anti-AP-1 effect (in words) [2] | inhibition ([3]; Homo sapiens) [%] | anti-oestrogenic effect (in words) [3] | RAR-ERcassette profile (in words) [4] | activity at 0.01 µM [5] [%] | activity at 1 µM [5] [%] | activity at 100 µM [5] [%] | effect on cellular increase, A-427 (in words) [5] | effect on cellular increase, T-47D (in words) [1] | further results |
| --- | --- | --- | --- | --- | --- | --- | --- | --- | --- | --- | --- | --- | --- | --- | --- | --- | --- | --- | --- |
| CC1(C)CCC(C)(C)c2cc(/C=C(\c3ccc(-c4nnn[nH]4)cc3)C(F)(F)F)ccc21 [CB77402, (E) 5-[4-[1-trifluoromethyl-2-(5,6,7,8-tetrahydro-5,5,8,8-tetramethyl-2-naphthalenyl)-1-ethenyl]phenyl]-1H-tetrazole] | 15.4 | 118 | 128 | 6 | 8 | 1 | 0 | 30 to 33 | 21 to 23 | anti-AP-1 molecules through RXR; also recorded: additive nature of the anti-AP-1 inhibitor effect | 0 | inactive | do not permit transactivation mediated by RARα-ERcassette and RARγ-cassette. However, a partial transactivation of RARβ-ERcassette is observed; also recorded: with a specific RAR agonist permits an over-activation of the effect of the RAR molecule alone for the three RAR-ERcassette receptors | 82.3 | 77.6 | 0.2 | show activity on the increase of these two lineages | – | – |
| CC1=C(/C=C/C(C)=C/C=C/C(C)=C/C(=O)O)C(C)(C)CCC1 [CB16178, all-trans retinoic acid, reference compound] | 1.8 | 52.6 | 77.2 | 108 | 443 | 249 | 127 | – | – | – | – | reduces the cellular growth and the expression of oestrogen-dependent genes | induce an over-expression of luciferase in comparison to the induction brought about by a synthetic compound (TTNPB) | – | 68.2 | 1.5 | – | inhibit the cellular increase of the two mammary lineages at the concentrations tested | GAL4-RAR RARα transactivation (Gal4-RARα; 10^-7 M): 102%; GAL4-RAR RARα transactivation (Gal4-RARα; 10^-8 M): 82%; RAR-ERcassette RARα transactivation (RARα-ERcassette; 10^-9 M): 65%; inhibition at 0.01 µM [2, 8]: 22 to 33%; inhibition at 0.1 µM [2, 8]: 28 to 44%; inhibition at 0.1 µM ([3]; Homo sapiens, MCF7, read-out: anti-oestrogenic effect, inhibition): 35% |
| C/C(=C/c1ccc2c(c1)C(C)(C)CCC2(C)C)c1ccc(-c2nnn[nH]2)cc1 [CB92834] | 3.5 | 83.2 | 86.5 | 8 | 11 | 9 | 0 | 20 to 23 | 4 to 9 | anti-AP-1 molecules through RXR | 0 | inactive | do not permit transactivation mediated by RARα-ERcassette and RARγ-cassette. However, a partial transactivation of RARβ-ERcassette is observed; also recorded: with a specific RAR agonist permits an over-activation of the effect of the RAR molecule alone for the three RAR-ERcassette receptors | 80.5 | 78.3 | 3.1 | show activity on the increase of these two lineages | strongly inhibitive activity on the cellular increase of the two lineages | – |
